Results: patent EP4707280A1, “1,4-CINEOLE DERIVATIVE AND INTERMEDIATE THEREOF, HERBICIDE CONTAINING SAID DERIVATIVE AS ACTIVE INGREDIENT, METHOD FOR USING HERBICIDE, AND METHOD FOR PREPARING AGROCHEMICAL COMPOSITION” (HOKKO CHEMICAL INDUSTRY CO., LTD., priority 2023, dated 2024)
Like-named read-outs stand apart in the source and are kept apart here.

Legend:
Assay type in all cases: in vivo
[1] = system: Echinochloa crus-galli var. formosensis at the three-leaf stage; test: Comparative Example: herbicidal effect test by application during growth period of paddy rice (three-leaf stage, Table 7); settings: 504 h, active ingredient 7.5 g per 10 ares, emulsifiable concentrate applied by dropper to flooded pots, 21 days after chemical application, triplicate, read-out: Weed inhibition rate (%)
Description: As an example, the herbicidal effect on Echinochloa crus-galli var. formosensis at the three-leaf stage was confirmed by the following method, and the results are specifically shown in Table 7 as a comparative example.
Wagner pots with an area of […] were filled with paddy soil, followed by addition of water and incorporation of chemical fertilizer (N:P:K = 16:16:16), after which puddling was performed. After that, 30 seeds of Echinochloa crus-galli var. formosensis were sown at a depth of 0 cm to 1 cm. Immediately after sowing, the pots were flooded and a water depth of approximately 3 cm was maintained. Subsequent management was conducted in a glass greenhouse. When Echinochloa crus-galli var. formosensis reached the three-leaf stage, an emulsifiable concentrate prepared according to Formulation Example 5 using the compound shown below was diluted with water, and a specified amount of the diluted solution was applied by dropper. The amount of the active ingredient to be applied was equivalent to 7.5 g per 10 ares. The test was conducted in triplicate for each chemical concentration group, and the weed inhibition rate (%) was determined 21 days after chemical application using the following formula (Math. 1).

Amaranthus viridis [2] = test: Test Example 4: herbicidal effect test by stem and leaf treatment in upland field; settings: 120 g per 10 ares, sprayed seven days after sowing, upland soil, 14 days after application, read-out: weed inhibition rate
Procedure, shortened: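 Post-emergence spray, 7 days after sowing: diluted emulsifiable concentrate at 100 liters per 10 ares delivering 120 g active ingredient per 10 ares. Weeds grown from seed mixed into the top 1 cm of alluvial loam. Inhibition (%) by formula at 14 days; duplicates.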

Lindernia pyxidaria [3] = test: Test Example 2: herbicidal effect test by application during growth period of paddy rice; settings: 120 g per 10 ares, applied seven days after sowing, flooded pots, 14 days after application, read-out: weed inhibition rate
Procedure, shortened: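 Flooded paddy pot test, greenhouse. Seeds 30/species, 0–1 cm depth, water ~3 cm. EC diluted in water, dropper-applied 7 d post-sowing at 120 g a.i./10 a. Inhibition rate (%) read 14 d after treatment; n=2.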

Lindernia pyxidaria [4] = test: Test Example 1: herbicidal effect test by soil application in paddy rice; settings: 336 h, 120 g active ingredient per 10 ares, applied immediately after sowing, flooded pots, 14 days after application, read-out: weed inhibition rate
Procedure, shortened: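 Pre-emergence test in puddled, flooded paddy soil (about 3 cm water), 30 seeds per weed sown at 0–1 cm depth in a glass greenhouse. Emulsifiable concentrate diluted in water and dropped onto the pots straight after sowing at 120 g a.i. per 10 ares. Weed inhibition (%) scored at 14 days, in duplicate.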

Lindernia pyxidaria [5] = test: Test Example 5: herbicidal effect test by soil application in paddy rice (low dose); settings: 336 h, 7.5 g per 10 ares, applied immediately after sowing, flooded pots, 14 days after application, read-out: weed inhibition rate
Procedure, shortened: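 Pre-emergence paddy test: seeds sown 0–1 cm (30 each), pots flooded ~3 cm, greenhouse. EC dilution dropped into water right after sowing, 7.5 g a.i./10 a. Duplicate pots; weed inhibition rate (%) by formula, day 14.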

Chenopodium album = test: Test Example 4: herbicidal effect test by stem and leaf treatment in upland field; settings: 120 g per 10 ares, sprayed seven days after sowing, upland soil, 14 days after application, read-out: weed inhibition rate
Amaranthus viridis [6] = test: Test Example 7: herbicidal effect test by soil application in upland field (low dose); settings: read-out: weed inhibition rate
[7] = 7.5 g per 10 ares, sprayed one day after sowing, upland soil, 14 days after application

SMILES | inhibition at 75 g/ha [1] | inhibition at 1200 g/ha (Lindernia pyxidaria [3]) | pest or weed control at 1200 g/ha (Lindernia pyxidaria [4]) | further results
CC(C)[C@]12C[C@@H](OCc3c(F)cccc3F)[C@](C)(CC1C)O2 (stereo partly drawn) [1-111, (1S,2R,4R)-2-((2,6-difluorobenzyl)oxy)-4-isopropyl-1,5-dimethyl-7-oxabicyclo[2.2.1]heptane] | 100% | – | – | –
CC(C)[C@]12C[C@@H](OCc3ccccc3)[C@](C)(C[C@@H]1Br)O2 [1-15, (1S,2R,4R,5S)-5-bromo-1-methyl-2-phenylmethoxy-4-isopropyl-7-oxabicyclo[2.2.1]heptane] | 80% | – | – | –
Cc1ccccc1CO[C@@H]1C[C@]2(C(C)C)O[C@@]1(C)C/C2=N\O [2-191, (1R,4S,5R,E)-1-isopropyl-4-methyl-5-((2-methylbenzyl)oxy)-7-oxabicyclo[2.2.1]heptan-2-one oxime] | – | – | – | inhibition at 1200 g/ha (Amaranthus viridis [2]): ≥ 80%
Cc1cccc(C)c1CO[C@@H]1C[C@]2(C(C)C)O[C@@]1(C)CC2=O [2-5, (1R,4S,5R)-5-((2,6-dimethylbenzyl)oxy)-1-isopropyl-4-methyl-7-oxabicyclo[2.2.1]heptan-2-one] | – | ≥ 80% | ≥ 80% | inhibition at 75 g/ha (Lindernia pyxidaria [5]): ≥ 80%
COC1(OC)C[C@]2(C)O[C@@]1(C(C)C)C[C@H]2OCc1ccccc1F [1-935, (1R,4S,5R)-5-((2-fluorobenzyl)oxy)-1-isopropyl-2,2-dimethoxy-4-methyl-7-oxabicyclo[2.2.1]heptane] | – | ≥ 80% | ≥ 80% | –
CC(C)[C@]12C[C@@H](OCc3ccccc3F)[C@](C)(C/C1=N\O)O2 [2-197, (1R,4S,5R,E)-5-((2-fluorobenzyl)oxy)-1-isopropyl-4-methyl-7-oxabicyclo[2.2.1]heptan-2-one oxime] | – | – | ≥ 80% | inhibition at 1200 g/ha (Amaranthus viridis [2]): ≥ 80%
Cc1ccccc1CO[C@@H]1C[C@]2(C(C)C)O[C@@]1(C)CC2C (stereo partly drawn) [1-83, (1S,2R,4R)-4-isopropyl-1,5-dimethyl-2-((2-methylbenzyl)oxy)-7-oxabicyclo[2.2.1]heptane] | 99% | – | – | inhibition at 1200 g/ha (Chenopodium album): ≥ 80%
CCO[C@H]1C[C@]2(C)O[C@@]1(C(C)C)C[C@H]2OCc1ccccc1F [1-183, (1S,2R,4R,5S)-5-ethoxy-2-[(2-fluorophenyl)methoxy]-1-methyl-4-isopropyl-7-oxabicyclo[2.2.1]heptane] | 93% | – | – | –
CC(C)[C@]12C[C@@H](OCc3ccccc3F)[C@](C)(C[C@@H]1Br)O2 [1-19, (1S,2R,4R,5S)-5-bromo-2-[(2-fluorophenyl)methoxy]-1-methyl-4-isopropyl-7-oxabicyclo[2.2.1]heptane] | 88% | ≥ 80% | ≥ 80% | inhibition at 1200 g/ha (Chenopodium album): ≥ 80%
Cc1ccccc1CO[C@@H]1C[C@@]2(C(C)C)C=C[C@]1(C)O2 [3-2, (1R,4S,5R)-4-methyl-5-[(2-methylphenyl)methoxy]-1-isopropyl-7-oxabicyclo[2.2.1]hept-2-ene] | – | – | – | inhibition at 75 g/ha (Amaranthus viridis [6]; [7]): ≥ 80%
CC(C)[C@]12C[C@@H](OCc3ccccc3F)[C@](C)(C[C@@H]1OCc1ccccc1F)O2 [1-603, (1S,2R,4R,5S)-2,5-bis[(2-fluorophenyl)methoxy]-1-methyl-4-isopropyl-7-oxabicyclo[2.2.1]heptane] | – | – | ≥ 80% | inhibition at 1200 g/ha (Chenopodium album): ≥ 80%; inhibition at 75 g/ha (Lindernia pyxidaria [5]): ≥ 80%
Cc1ccccc1CO[C@@H]1C[C@]2(C(C)C)O[C@@]1(C)C[C@@H]2Br [1-16, (1S,2R,4R,5S)-5-bromo-1-methyl-2-[(2-methylphenyl)methoxy]-4-isopropyl-7-oxabicyclo[2.2.1]heptane] | – | – | ≥ 80% | –
CC(C)[C@]12C[C@@H](OCc3c(F)cccc3F)[C@](C)(C[C@@H]1Br)O2 [1-21, (1S,2R,4R,5S)-5-bromo-2-[(2,6-difluorophenyl)methoxy]-1-methyl-4-isopropyl-7-oxabicyclo[2.2.1]heptane] | 93% | – | – | –
C=CCO[C@H]1C[C@]2(C)O[C@@]1(C(C)C)C[C@H]2OCc1ccccc1F [1-1602, (1S,2R,4R,5S)-2-[(2-fluorophenyl)methoxy]-1-methyl-4-isopropyl-5-prop-2-enoxy-7-oxabicyclo[2.2.1]heptane] | 82% | – | – | –
CC(C)[C@]12C[C@@H](OCc3ccccc3F)[C@](C)(C[C@@H]1F)O2 [1-5, (1R,2S,4S,5R)-2-fluoro-5-((2-fluorobenzyl)oxy)-1-isopropyl-4-methyl-7-oxabicyclo[2.2.1]heptane] | 100% | – | – | inhibition at 1200 g/ha (Chenopodium album): ≥ 80%
CC(C)[C@]12C[C@@H](OCc3ccccc3F)[C@](C)(C[C@@H]1I)O2 [1-753, (1S,2R,4R,SS)-2-[(2-fluorophenyl)methoxy]-5-iodo-1-methyl-4-isopropyl-7-oxabicyclo[2.2.1]heptane] | 93% | – | – | inhibition at 75 g/ha (Amaranthus viridis [6]; soil): ≥ 80%
CC(C)=CCO[C@@H]1C[C@]2(C(C)C)O[C@@]1(C)C[C@@H]2Br [1-672, (1S,2R,4R,5S)-5-bromo-1-methyl-2-(3-methylbut-2-enoxy)-4-isopropyl-7-oxabicyclo[2.2.1]heptane] | – | ≥ 80% | – | –
Cc1ccccc1CO[C@@H]1C[C@]2(C(C)C)O[C@@]1(C)C[C@@H]2I [1-741, (1S,2R,4R,5S)-5-iodo-1-methyl-2-[(2-methylphenyl)methoxy]-4-isopropyl-7-oxabicyclo[2.2.1]heptane] | – | – | ≥ 80% | inhibition at 75 g/ha (Lindernia pyxidaria [5]): ≥ 80%
CC(C)[C@]12C[C@@H](OCc3ccccc3C#N)[C@](C)(C[C@@H]1Br)O2 [1-703, 2-[[(1S,2R,4R,5S)-5-bromo-1-methyl-4-isopropyl-7-oxabicyclo[2.2.1]heptan-2-yl]oxymethyl]benzonitrile] | – | ≥ 80% | ≥ 80% | –
CC(C)[C@]12C[C@@H](OCc3ccccc3Br)[C@](C)(C[C@@H]1Br)O2 [1-694, (1S,2R,4R,5S)-5-bromo-2-[(2-bromophenyl)methoxy]-1-methyl-4-isopropyl-7-oxabicyclo[2.2.1]heptane] | – | – | – | inhibition at 75 g/ha (Amaranthus viridis [6]; [7]): ≥ 80%
CCC1C[C@]2(C)O[C@@]1(C(C)C)C[C@H]2OCc1ccccc1F (stereo partly drawn) [1-126, (1R,4S,5R)-2-ethyl-5-[(2-fluorobenzyl)oxy]-1-isopropyl-4-methyl-7-oxabicyclo[2.2.1]heptane] | 100% | – | – | –
CC(C)[C@]12C[C@@H](OCc3ccccc3Cl)[C@](C)(CC1=O)O2 [2-11, (1R,4S,5R)-5-((2-chlorobenzyl)oxy)-1-isopropyl-4-methyl-7-oxabicyclo[2.2.1]heptan-2-one] | – | ≥ 80% | – | –
Cc1ccccc1CO[C@@H]1C[C@]2(C(C)C)O[C@@]1(C)CC2=O [2-3, (1R,4S,5R)-1-isopropyl-4-methyl-5-((2-methylbenzyl)oxy)-7-oxabicyclo[2.2.1]heptan-2-one] | – | ≥ 80% | ≥ 80% | inhibition at 1200 g/ha (Chenopodium album): ≥ 80%
CC(C)[C@]12C[C@@H](OCc3cccc(F)c3)[C@](C)(CC1=O)O2 [2-351, (1R,4S,5R)-5-((3-fluorobenzyl)oxy)-1-isopropyl-4-methyl-7-oxabicyclo[2.2.1]heptan-2-one] | – | ≥ 80% | ≥ 80% | inhibition at 1200 g/ha (Chenopodium album): ≥ 80%
CC(C)[C@]12C[C@@H](OCc3ccc(F)cc3)[C@](C)(CC1=O)O2 [2-349, (1R,4S,5R)-5-((4-fluorobenzyl)oxy)-1-isopropyl-4-methyl-7-oxabicyclo[2.2.1]heptan-2-one] | – | ≥ 80% | ≥ 80% | inhibition at 1200 g/ha (Amaranthus viridis [2]): ≥ 80%
